Laboratory results: patent publication US20200308162A1, “DRUGS AND COMPOSITIONS FOR OCULAR DELIVERY” (Graybug Vision, Inc., priority 2017, published 2020)
Entries after “also recorded” stand apart in the source; their conditions may differ. Where a name gives a salt, the structure may show the parent alone. Each block holds one compound with its values, some of them ahead of it.

Assays:
[1] = Drug release kinetics of Timolol and ethacrynic acid prodrugs from polymer microparticles; assay type: physicochemical
Procedure: The effect of polymer composition including monomer ratio and molecular weight, polymer end-groups (ester or acid), inherent viscosity and polymer blend ratios on particle degradation and drug release kinetics of Timolol-O-ethyl fumurate (17) was evaluated and is illustrated in FIG. 5. The rate of particle degradation was slowed and drug release was prolonged when the mole % of DL-lactide over glycolide was increased. By incorporating polymers with different monomer ratios (i.e., PLA, PLGA8515, PLGA525, PLGA5050 wherein 8515 refers to 85% DL-lactide and 15% glycolide) into the particles, it is possible to fine-tune the degradation rate of the particles to achieve a linear rate of drug release from the particles to minimize burst or lag and to extend the duration of release. […] The 78/22(PLA 5A/PLGA8515 4.5A) and 65/20/15(PLA 4A/PLGA6515 4.5A/PLGA5050 4A) polymer blends generated ideal particles for a 3-6 month linear release formulation. […] The rate of release was independent of the salt form. […] Thus, release rate is not solely dictated by the physicochemical properties of the linker, but rather must be attributed to a combination of parameters that may include linker type and site of linker conjugation.
FIG. 6 illustrates the release kinetics of ethacrynic acid-PLA(n=4)-ethyl ester (1) from PLGA microparticles. The drug was released over a period of approximately 66 days.
FIG. 8 and FIG. 9 illustrate the release kinetics of ethacrynic acid-PLA(n=4)-ethyl ester (1) and ethacrynic acid-PLA(n=6)-ethyl ester (25), respectively, from PLGA microparticles. The drug was released from a number of formulations over a period of greater than 90 days. […] Particles generated with 1% PVA in PBS was compared against particles generated in 1% PVA in water (FIG. 10).
Based upon these initial formulation screens, the formulation comprising of 1% mPEG-PLGA and 99% PLA100 4.5A:PLGA8515 5A (77:22) was selected as the lead formulation for ECA-PLA(n=4) (1) and ECA-PLA(n=6) (25) prodrugs. The particles were prepared in 1% PVA in water. The release profiles for the lead ECA-PLA(n=4) (1) and ECA-PLA(=6) (25) particle formulations are illustrated in FIG. 11.

[2] = Drug solubility in water, DMSO and DCM (HPLC of filtered supernatant); conditions: for solubility: thermodynamic from solid; for Solubility Water: 50 mg/mL target concentration
Procedure: For each test, approximately 5-10 mg was transferred to a 10 mL glass vial. Aqueous or organic solvent was added to each vial to achieve an overall concentration of 50 mg/mL. After vortexing aggressively for 2-3 minutes and sonicating in a bath sonicator for 5 minutes, undissolved drug was spun down at 1200 rpm for 5 minutes to generate a pellet. The supernatant was collected and filtered through a 0.2 μm nylon syringe filter into HPLC vials for drug content analysis. Drug concentration was determined by comparing against a standard calibration curve.

[3] = In vitro stability of ethacrynic acid prodrugs at 37° C.; assay type: physicochemical; conditions: for generation of parent ethacrynic acid as ester linkages are hydrolyzed: 37° C. over 6 days
Excerpt: As evidenced, both prodrugs of ethacrynic acid degrade steadily over the 6 day period. As the ester linkages are hydrolyzed, the parent compound is generated in a linear rate. The rate of degradation to the parent compound is faster for the shorter […] in comparison to the degradation kinetics for ethacrynic acid-PLA(n=4)-ethyl ester (1).
Approximately 94% of the ECA-PLA(n=4) prodrug (1) has been converted to free ECA by day 6, in comparison to only 56% for ECA-PLA(n=6) (25). Also, by day 6, all the initial prodrug has been degraded into intermediates and free drug respectively.

[4] = Percent drug loading of ethacrynic acid prodrug microparticles (RP-HPLC); assay type: physicochemical
Procedure: To determine the percent drug loading (% DL), 10 mg of particles was weighed into a glass scintillation vial and dissolved with 10 mL of MeCN:water (1:1, v/v). The solution was filtered through a 0.2 μm nylon syringe filter and the drug content was determined by RP-HPLC referenced against a standard calibration curve.

[5] = Mean size of ethacrynic acid prodrug encapsulated microparticles; assay type: physicochemical
[6] = In vitro drug release kinetics of Timolol prodrug microparticles in PBS and 1% Tween 20 (pH 7.4) at 37° C.; assay type: physicochemical; conditions: PBS and 1% Tween 20 (pH 7.4), 37° C.
Procedure: In vitro drug release kinetics were evaluated in a release medium composed of PBS and 1% Tween 20 (pH 7.4). Briefly, 10 mg of particles was suspended in 4 mL of the release medium The particle suspension was incubated on an orbital shaker at 150 rpm at 37° C. At various time points, 3 mL of release media was collected, and the suspension was replenished with 3 mL of fresh release media. Collected release samples were frozen and stored at −80° C. until analysis for drug content. The collected samples were filtered through a 0.2 μm syringe filter and analyzed by RP-HPLC. FIG. 17-FIG. 22 illustrate the total and parent Timolol release profile for the microparticles encapsulating bis-prodrugs of Timolol of Table 11.

[7] = DMSO, organic solvent or mixture
[8] = PLA100 4.5A + 1% PEG-PLGA5050, polymer 200 mg/mL
[9] = PLA100 4.5A + PLGA7525 6E (69:30) + 1% PEG-PLGA5050, polymer 200 mg/mL
[10] = PLA100 4.5A + PLGA8515 5A (77:22) + 1% PEG-PLGA5050, polymer 200 mg/mL
[11] = PLA100 4.5A + PLGA8515 5A + PLGA5050 4A (64:20:15) + 1% PEG-PLGA5050, polymer 200 mg/mL
[12] = PLA100 4.5A + PLGA8515 5A + PLGA5050 4A (64:30:5) + 1% PEG-PLGA5050, polymer 200 mg/mL
[13] = PLGA7525 4A + 1% PEG-PLGA5050, polymer 200 mg/mL
[14] = PLGA7525 6A + 1% PEG-PLGA5050, polymer 200 mg/mL
[15] = PLGA8515 5A + 1% PEG-PLGA5050, polymer 200 mg/mL
[16] = PLGA8515 5A + PLGA7525 4A (69:30) + 1% PEG-PLGA5050, polymer 200 mg/mL
[17] = DCM, organic solvent or mixture

Compound: C=C(CC)C(=O)c1ccc(OCC(=O)O[C@@H](C)C(=O)O[C@@H](C)C(=O)O[C@@H](C)C(=O)O[C@@H](C)C(=O)OCC)c(Cl)c1Cl [Compound 1, (S)-2-{2-[2,3-Dichloro-4-(2-methylene-butyryl)-phenoxy]-acetoxy}-propionic acid (S)-1-[(S)-1-((S)-1-ethoxycarbonyl-ethoxycarbonyl)-ethoxycarbonyl]-ethyl ester]
- in vitro release profile of lead microparticle formulation ([1]; 1% mPEG-PLGA and 99% PLA100 4.5A:PLGA8515 5A (77:22), prepared in 1% PVA in water, FIG. 11): typical biphasic release profile
- period over which the drug was released ([1]; microparticles of PLA/PLGA blends, PLGA blends, FIG. 6): approximately 66 days
- generation of parent ethacrynic acid as ester linkages are hydrolyzed [3]: generated at a linear rate
- rate of degradation of the prodrug ([3]; 37° C., 6 days): slightly faster
- prodrug converted to free ECA by day 6 ([3]; 37° C., day 6): Approximately 94%
- % Drug loading [4, 8]: 13.42%
- % Drug loading [4, 9]: 14.17%
- % Drug loading [4, 10]: 12.56%
- % Drug loading [4, 11]: 13.75%
- % Drug loading [4, 12]: 12.68%
- % Drug loading [4, 13]: 13.09%
- % Drug loading [4, 14]: 13.15%
- % Drug loading [4, 15]: 13.59%
- % Drug loading [4, 16]: 13.49%
- Mean size [5, 8]: 35.06 um
- Mean size [5, 9]: 27.40 um
- Mean size [5, 10]: 26.60 um
- Mean size [5, 11]: 28.34 um
- Mean size [5, 12]: 29.86 um
- Mean size [5, 13]: 29.85 um
- Mean size [5, 14]: 25.21 um
- Mean size [5, 15]: 28.90 um
- Mean size [5, 16]: 27.74 um
- solubility [2, 7]: > 40 mg/mL
- solubility ([2]; water): < 1 mg/mL

Compound: CC(C)(C)NC[C@@H](COc1nsnc1N1CCOCC1)OC(=O)CCC(=O)O [Compound 4, Succinic acid mono-[(S)-1-(tert-butylamino-methyl)-2-(4-morpholin-4-yl-[1,2,5]thiadiazol-3-yloxy)-ethyl] ester]
- solubility [2, 7]: > 50 mg/mL
- solubility ([2]; water): > 50 mg/mL

Compound: Dorzolamide-Stearylfumurate [Compound 15]
- Solubility DMSO ([2]; DMSO): >100 mg/mL
- Solubility Water ([2]; water): >50 mg/mL

Compound: CCCCCCCCCCCCOC(=O)/C=C/C(=O)O[C@@H](CNC(C)(C)C)COc1nsnc1N1CCOCC1 [Compound 12, Timolol-O-Laurylfumurate-Maleate]
- solubility [2, 7]: > 100 mg/mL
- solubility ([2]; water): < 1 mg/mL

Compound: CCOC(=O)CCC(=O)O[C@@H](CNC(C)(C)C)COc1nsnc1N1CCOCC1.Cl [Compound 6, Timolol-O-Ethylsuccinate HCL]
- solubility [2, 7]: > 50 mg/mL
- solubility ([2]; water): 6.25 mg/mL

Compound: CC(C)(C)NC[C@@H](COc1nsnc1N1CCOCC1)OC(=O)/C=C\C(=O)O [Compound 7, Timolol-O-Maleate]
- solubility [2, 7]: > 50 mg/mL
- solubility ([2]; water): > 50 mg/mL

Compound: CCN[C@H]1C[C@H](C)S(=O)(=O)c2sc(S(=O)(=O)NC(=O)/C=C/C(=O)OCC)cc21 [Compound 14, Dorzolamide-Ethylfumurate]
- solubility [2, 17]: > 100 mg/mL
- solubility [2, 7]: > 100 mg/mL
- solubility ([2]; water): < 1 mg/mL

Compound: CCOC(=O)CCC(=O)O[C@@H](CNC(C)(C)C)COc1nsnc1N1CCOCC1.O=C(O)/C=C\C(=O)O [Compound 5, Timolol-O-Ethylsuccinate Maleate]
- solubility [2, 7]: > 50 mg/mL
- solubility ([2]; water): 12.5 mg/mL

Compound: CCOC(=O)/C=C\C(=O)O[C@@H](CNC(C)(C)C)COc1nsnc1N1CCOCC1.O=C(O)/C=C\C(=O)O [Compound 8, Timolol-O-Ethylmaleate-Maleic Acid]
- solubility [2, 7]: > 50 mg/mL
- solubility ([2]; water): < 1 mg/mL

Compound: C=C(CC)C(=O)c1ccc(OCC(=O)O[C@@H](C)C(=O)O[C@@H](C)C(=O)OCC)c(Cl)c1Cl [Compound 2, 2-{2-[2,3-Dichloro-4-(2-methylene-butyryl)-phenoxy]-acetoxy}-propionic acid 1-ethoxycarbonyl-ethyl ester]
- generation of parent ethacrynic acid as ester linkages are hydrolyzed [3]: generated at a linear rate
- rate of degradation to the parent compound / conversion to the free drug ([3]; 37° C., 6 days, comparison between prodrugs): degraded faster; also recorded: significantly faster
- solubility [2, 7]: > 50 mg/mL
- solubility ([2]; water): < 1 mg/mL

Now from value to compound:

- linear release profile ([1]; microparticles, 78/22(PLA 5A/PLGA8515 4.5A) and 65/20/15(PLA 4A/PLGA6515 4.5A/PLGA5050 4A) polymer blends, FIG. 5): 3-6 month
- solubility [2, 7]: > 50 mg/mL
- solubility ([2]; water): < 1 mg/mL
- Solubility Water ([2]; water): <1.0 mg/mL
Compound: CCOC(=O)/C=C/C(=O)O[C@@H](CNC(C)(C)C)COc1nsnc1N1CCOCC1 [Compound 17, Timolol-O-Ethylfumurate]

- parent Timolol released relative to total release of prodrug and intermediates [6]: significantly less
Compound: CC(=O)OC(C)C(=O)OC(C)C(=O)OC(C)C(=O)OC(C)C(=O)N(C[C@@H](COc1nsnc1N1CCOCC1)OC(=O)C(C)OC(=O)C(C)OC(C)=O)C(C)(C)C (some centres unmarked) [Compound 55, Timolol-Bis-N-Acetyl-PLA (n = 4)-O-Acetyl PLA (n = 2)]

- solubility [2, 7]: > 50 mg/mL
- solubility ([2]; water): < 0.1 mg/mL
Compound: C=C(CC)C(=O)c1ccc(OCC(=O)O[C@@H](C)C(=O)O[C@@H](C)C(=O)O[C@@H](C)C(=O)O[C@@H](C)C(=O)O[C@@H](C)C(=O)O[C@@H](C)C(=O)O[C@@H](C)C(=O)O[C@@H](C)C(=O)OCC)c(Cl)c1Cl [Compound 26]

- parent Timolol released relative to total release of prodrug and intermediates [6]: significantly less
Compound: Timolol-Bis-Acetyl PLA (n = 4) [Compound 54]

- Solubility DMSO ([2]; DMSO): >50 mg/mL
- Solubility Water ([2]; water): <1.0 mg/mL
Compound: Dorzolamide-Laurylmaleate [Compound 16]

- parent Timolol released relative to total release of prodrug and intermediates [6]: significantly less
Compound: CC(=O)OC(C)C(=O)OC(C)C(=O)OC(C)C(=O)OC(C)C(=O)O[C@H](COc1nsnc1N1CCOCC1)CN(C(=O)C(C)OC(=O)C(C)OC(C)=O)C(C)(C)C (some centres unmarked) [Compound 56, Timolol-Bis-N-Acetyl-PLA (n = 2)-O-Acetyl-PLA (n = 4)]

- solubility [2, 17]: < 1 mg/mL
- solubility [2, 7]: < 1 mg/mL
- solubility ([2]; water): > 50 mg/mL
Compound: CCN[C@H]1C[C@H](C)S(=O)(=O)c2sc(S(N)(=O)=O)cc21 [Dorzolamide, reference compound]

- solubility [2, 7]: > 100 mg/mL
- solubility ([2]; water): > 25 mg/mL
Compound: CCOC(=O)/C=C\C(=O)OC(CNC(C)(C)C)COc1nsnc1N1CCOCC1 (centres unmarked) [Compound 18, Timolol-O-Ethyl Maleate]
